This note sets out measurements from patent publication US20250345378A1 (priority 2022, published 2025).

Where two headings read alike, the source gives them in different places.

Experiment [1] concerns 88 urinary tract infection E. coli isolates. Type of experiment: cell-based, Escherichia coli. Particulars: for Host Range % on MDR Subset (n = 21), Combination: Antibiotic + LBP-EC01 v.2 / Host Range % on all Strains (n = 88), Combination: Antibiotic + LBP-EC01 v.2 / Host Range % on Beta-lactam-Resistant Subset (n = 31), Combination: Antibiotic + LBP-EC01 v.2: antibiotic combined with LBP-EC01 v.2; for Host Range % on all Strains (n = 88), Combination: Antibiotic + CK618 v.2: antibiotic at breakpoint concentration plus cocktail 1 × 10^6 PFU/ml per bacteriophage. Here is the method: (§1) Phage cocktail CK618 was tested in combination with and alongside antibiotics against two isolate panels. The first assay used a panel of 88 contemporaneous urinary tract infection (UTI) isolates from North America, Europe, Latin America, and Asia. […] The second assay used a panel made up of a 300-strain clinical isolate panel (Table 14) with an additional 4 strains of interest. […] Four of the same SOC antibiotics tested against the 88-isolate panel were tested against this panel. The non-SOC antibiotics were not included due to their limited use in clinical settings, and nitrofurantoin was not included due to the low probability of resistance to this drug.
(§2) For both isolate panels, antibiotic concentrations tested were determined by using Clinical and Laboratory Standards Institute (CLSI) or European Committee on Antimicrobial Susceptibility Testing (EUCAST) breakpoints at concentrations that kill susceptible isolates but allow intermediate or resistant isolates to grow in the standard AST microdilution assay (Table 17).
(§3) The composition of the proposed Phase 2 CRISPR-enhanced bacteriophage (CRISPR-phage, hereafter termed ‘crPhage’) cocktail (CK618) has been updated from the CK570 to include six bacteriophages as compared to three bacteriophages in CK570. Bacteriophage cocktail CK618, was prepared such that all bacteriophages had equivalent titers in the final cocktail. The cocktail was then mixed with bacteria to obtain final titers of 1×10^6 plaque-forming unit (PFU)/mL/phage for the cocktail and 1×10^5 colony-forming unit (CFU)/mL for the bacteria, resulting in a multiplicity of infection (MOI) of 10 for each bacteriophage in a sample. Briefly, 5 μl of each sample (CK618 alone, CK618 and antibiotics, antibiotics alone, or medium alone) was added to 5 μl of optical density (OD)-normalized bacterial isolate and 40 μl LB medium. Reactions were incubated at 37° C. with shaking and OD measurements were taken each hour for 20 hours.
(§4) Host range percentage is the percent of isolates that responded to treatment of antibiotics or CK618. In the case of the 88-isolate panel, results were analyzed on the complete panel as well as the subset of classified as multidrug-resistant (MDR) (n=21) and beta-lactam-resistant (n=31).
(§5) The first assay used a panel of 88 contemporaneous isolates. Twenty-one of those strains are classified as MDR, with resistance to 3 or more antibiotic classes. […] The second assay used the panel made up of a 300-strain clinical isolate panel with an additional 4 strains of interest.
(§6) Antibiotic concentrations tested were determined by using CLSI or EUCAST breakpoints at concentrations that kill susceptible strains but allow intermediate or resistant strains to grow in the standard AST microdilution assay (Table 27). LBP-EC01 v.2 was combined with bacteria resulting in a MO of 10 for each bacteriophage in a sample. In the case of the 88-isolate panel, results were analyzed on the complete panel as well as the subset of isolates classified as multidrug-resistant (MDR) (n=21) and beta-lactam-resistant (n=31).

Experiment [2] relates to 304 E. coli clinical isolates. In kind it is cell-based, Escherichia coli. Particulars: 304-isolate panel. Here is the method: as §1, §2, §3, §4, §5, §6
The mark [3] stands for this setting: 88-isolate panel, MDR subset, single agent.
Setting [4] is: 88-isolate panel, all strains, single agent.
The mark [5] stands for this setting: 88-isolate panel, beta-lactam-resistant subset.
The mark [6] stands for this setting: 88-isolate panel, beta-lactam-resistant subset, single agent.
The mark [7] stands for this setting: antibiotic at breakpoint concentration (Table 17), cocktail 1 × 10^6 PFU/ml per bacteriophage, MOI 10.

Take `C=CC1=C(C(=O)O)N2C(=O)[C@@H](NC(=O)/C(=N\O)c3csc(N)n3)[C@H]2SC1` [Cefdinir]: in experiment [1] (88-isolate panel), the “Host Range % on Beta-lactam-Resistant Subset (n = 31), Combination: Antibiotic + CK618 v.2” value came out at 78.5%; the “Host Range % on Beta-lactam-Resistant Subset (n = 31), Single agent treatment” value (“Host Range % … (n = 31), Single agent treatment” for short) turned out to be 12.9%; the “Host Range % on MDR Subset (n = 21), Combination: Antibiotic + CK618 v.2” value is 74.6%; the “Host Range % on MDR Subset (n = 21), Single agent treatment” value worked out at 14.3%. Also, the “Host Range % on MDR Subset (n = 21), Combination: Antibiotic + LBP-EC01 v.2” value in experiment [1] (88-isolate panel, MDR subset) is 74.6%. The “Host Range % on MDR Subset (n = 21), Single agent treatment” value in experiment [1] (setting [3]) is 14.3%. The “Host Range % on all Strains (n = 88), Combination: Antibiotic + LBP-EC01 v.2” value in experiment [1] (88-isolate panel, all strains) is on record as 87.5%. Moreover, the “Host Range % on all Strains (n = 88), Single agent treatment” value in experiment [1] (setting [4]) stood at 48.9%. In experiment [1] (setting [5]), the “Host Range % on Beta-lactam-Resistant Subset (n = 31), Combination: Antibiotic + LBP-EC01 v.2” value is recorded as 78.5%. In addition, in experiment [1] (setting [6]), the “Host Range % … (n = 31), Single agent treatment” value worked out at 12.9%. The “Host Range % on all Strains (n = 88), Single agent treatment” value in experiment [1] (setting [7]) is recorded as 48.9%. For the same molecule, the “Host Range % on all Strains (n = 88), Combination: Antibiotic + CK618 v.2” value in experiment [1] is 87.5%.
With `CO/N=C(\C(=O)N[C@@H]1C(=O)N2C(C(=O)O)=C(CSc3nc(=O)c(=O)[nH]n3C)CS[C@H]12)c1csc(N)n1` [Ceftriaxone], in experiment [1] (88-isolate panel), the “Host Range % on Beta-lactam-Resistant Subset (n = 31), Combination: Antibiotic + CK618 v.2” value was determined as 81.7%; the “Host Range % … (n = 31), Single agent treatment” value is recorded as 15.1%; the “Host Range % on MDR Subset (n = 21), Combination: Antibiotic + CK618 v.2” value came to 77.8%; the “Host Range % on MDR Subset (n = 21), Single agent treatment” value was 20.6%. Moreover, the “Host Range % on MDR Subset (n = 21), Combination: Antibiotic + LBP-EC01 v.2” value in experiment [1] (88-isolate panel, MDR subset) is given as 77.8%. In experiment [1] (setting [3]), the “Host Range % on MDR Subset (n = 21), Single agent treatment” value worked out at 20.6%. Also, the “Host Range % on all Strains (n = 88), Combination: Antibiotic + LBP-EC01 v.2” value in experiment [1] (88-isolate panel, all strains) came to 92.4%. The “Host Range % on all Strains (n = 88), Single agent treatment” value in experiment [1] (setting [4]) was 64.4%. The “Host Range % on Beta-lactam-Resistant Subset (n = 31), Combination: Antibiotic + LBP-EC01 v.2” value in experiment [1] (setting [5]) was found to be 81.7%. Also, the “Host Range % … (n = 31), Single agent treatment” value in experiment [1] (setting [6]) is given as 15.1%. Moreover, the “Host Range % on all Strains (n = 88), Single agent treatment” value in experiment [1] (setting [7]) was determined as 64.4%. Further, the “Host Range % on all Strains (n = 88), Combination: Antibiotic + CK618 v.2” value in experiment [1] is reported as 92.4%.
On to `CC1=C(C(=O)O)N2C(=O)[C@@H](NC(=O)[C@H](N)c3ccccc3)[C@H]2SC1` [Cephalexin], for which, in experiment [2], the “Host range % on MDR subset (n = 93), Combination: Antibiotic + LBP-CK618” value is recorded as 79.6%; the “Host range % on MDR subset (n = 93), Single agent treatment” value came to 24.7%; the “Host range % on beta-lactam-resistant subset (n = 91), Combination: Antibiotic + LBP-CK618” value worked out at 79.1%; the “Host range % on beta-lactam-resistant subset (n = 91), Single agent treatment” value is reported as 8.8%. Moreover, the “Host Range % on MDR Subset (n = 93), Combination Antibiotic + LBP-EC01 v.2” value in experiment [2] (MDR subset, antibiotic combined with LBP-EC01 v.2) was 79.6%. Besides, the “Host Range % on all Strains (n = 304), Single agent treatment” value in experiment [2] (all strains, single agent) was 57.6%. The “Host Range % on Beta-lactam-Resistant Subset (n = 91), Combination: Antibiotic + LBP-EC01 v.2” value in experiment [2] (beta-lactam-resistant subset, antibiotic combined with LBP-EC01 v.2) is 79.1%. Besides, the “Host range % on beta-lactam-resistant subset (n = 91), Single agent treatment” value in experiment [2] (beta-lactam-resistant subset, single agent) is 8.8%. In experiment [1] (88-isolate panel), the “Host Range % on Beta-lactam-Resistant Subset (n = 31), Combination: Antibiotic + CK618 v.2” value came out at 81.7%; the “Host Range % … (n = 31), Single agent treatment” value is reported as 11.8%; the “Host Range % on MDR Subset (n = 21), Combination: Antibiotic + CK618 v.2” value is 76.2%; the “Host Range % on MDR Subset (n = 21), Single agent treatment” value amounted to 14.3%. Also, the “Host Range % on MDR Subset (n = 21), Combination: Antibiotic + LBP-EC01 v.2” value in experiment [1] (88-isolate panel, MDR subset) came to 76.2%. Besides, the “Host Range % on MDR Subset (n = 21), Single agent treatment” value in experiment [1] (setting [3]) was determined as 14.3%. Moreover, the “Host Range % on all Strains (n = 88), Combination: Antibiotic + LBP-EC01 v.2” value in experiment [1] (88-isolate panel, all strains) was determined as 87.9%. Besides, the “Host Range % on all Strains (n = 88), Single agent treatment” value in experiment [1] (setting [4]) was found to be 49.2%. Besides, the “Host Range % on Beta-lactam-Resistant Subset (n = 31), Combination: Antibiotic + LBP-EC01 v.2” value in experiment [1] (setting [5]) was found to be 81.7%. Also, the “Host Range % … (n = 31), Single agent treatment” value in experiment [1] (setting [6]) is reported as 11.8%. Besides, in experiment [1] (setting [7]), the “Host Range % on all Strains (n = 88), Single agent treatment” value stood at 49.2%. Also, the “Host Range % on all Strains (n = 88), Combination: Antibiotic + CK618 v.2” value in experiment [1] amounted to 87.9%.
`O=C1CN(/N=C/c2ccc([N+](=O)[O-])o2)C(=O)N1` [Nitrofurantoin]: in experiment [1] (88-isolate panel), the “Host Range % on Beta-lactam-Resistant Subset (n = 31), Combination: Antibiotic + CK618 v.2” value is reported as 97.8%; the “Host Range % … (n = 31), Single agent treatment” value was 90.3%; the “Host Range % on MDR Subset (n = 21), Combination: Antibiotic + CK618 v.2” value was determined as 98.4%; the “Host Range % on MDR Subset (n = 21), Single agent treatment” value was 85.7%. Also, in experiment [1] (88-isolate panel, MDR subset), the “Host Range % on MDR Subset (n = 21), Combination: Antibiotic + LBP-EC01 v.2” value is recorded as 98.4%. Moreover, the “Host Range % on MDR Subset (n = 21), Single agent treatment” value in experiment [1] (setting [3]) was determined as 85.7%. The “Host Range % on all Strains (n = 88), Combination: Antibiotic + LBP-EC01 v.2” value in experiment [1] (88-isolate panel, all strains) is listed as 93.9%. Further, the “Host Range % on all Strains (n = 88), Single agent treatment” value in experiment [1] (setting [4]) turned out to be 83.0%. Moreover, in experiment [1] (setting [5]), the “Host Range % on Beta-lactam-Resistant Subset (n = 31), Combination: Antibiotic + LBP-EC01 v.2” value amounted to 97.8%. In addition, the “Host Range % … (n = 31), Single agent treatment” value in experiment [1] (setting [6]) came to 90.3%. For the same molecule, the “Host Range % on all Strains (n = 88), Single agent treatment” value in experiment [1] (setting [7]) was 83.0%. Further, the “Host Range % on all Strains (n = 88), Combination: Antibiotic + CK618 v.2” value in experiment [1] was found to be 93.9%.
